Assays:
[1] = target: ABCB4-L556R (Homo sapiens, UniProt P21439, L556R); assay: Canalicular localisation of ABCB4-L556R by indirect immunofluorescence in HepG2 cells; type: cell-based; design: The subcloning of wild type (WT) ABCB4, isoform A (NM_000443.3), into pcDNA3 vector has been described; expressed in transfected cells; host or cells: HepG2 (immunofluorescence); conditions: 25 μM
Procedure: (§1) For indirect immunofluorescence, HepG2 cells were grown on glass coverslips and after transfection and treatments, they were fixed and permeabilized during 1 min at −20° C. in ice-cold methanol. Then ABCB4 and ABCC2 were immunolabelled using the mouse monoclonal P3II-26 (IgG2b) and M2I-4 (IgG1) antibodies (Enzo Life Sciences), respectively. AlexaFluor® 555 and AlexaFluor® 488 conjugated isotype-specific secondary antibodies (Thermo Fisher Scientific) and Hoechst 33342 (Thermo Fisher Scientific) were used to label ABCB4, ABCC2 and nuclei, respectively. Images were acquired using an IX83 inverted fluorescence microscope from Olympus (Rungis, France), equipped with a UPLSAPO 60XS2 silicone immersion objective and a Hamamatsu ORCA Flash4.0 digital CMOS camera, and analysed using Olympus CellSens Dimension Desktop version 1.16 and Adobe Photoshop version 8.0.1. For each experiment, all images were acquired with constant settings (acquisition time and correction of signal intensities).

[2] = target: T1, CDK9/T (Homo sapiens, UniProt P50750); assay: Protein kinase catalytic activity assay, CDK9/cyclin T; type: biochemical; conditions: activator cyclin T; read-out: IC50 of protein kinases, CDK9/T
T1 construct: made in house

[3] = target: T2, CDK5/p25 (Homo sapiens, UniProt Q00535); type: biochemical; conditions: activator p25; read-out: IC50 of protein kinases, CDK5/p25
T2 construct: made in house

[4] = target: T3, ABCB4-I490T (Homo sapiens, UniProt P21439, I490T); assay: Maturation of ABCB4-I490T by immunoblot in HEK cells; type: cell-based; design: The subcloning of wild type (WT) ABCB4, isoform A (NM_000443.3), into pcDNA3 vector has been described; expressed in transfected cells; host or cells: HEK-293 (immunoblot, PC secretion); conditions: 5 to 25 μM
Procedure: Western blots and indirect immunofluorescence were performed as previously described (2, 12). […] Saturated membranes were incubated with mouse monoclonal anti-ABCB4 (clone P3II-26; Enzo Life Sciences, Villeurbanne, France) or anti-α-tubulin (clone 1E4C11; ProteinTech, Manchester, United Kingdom) antibodies and then with peroxidase conjugated anti-mouse secondary antibodies (Sigma). Signals were detected with ECL prime western blotting detection reagent (GE Healthcare, Velizy-Villacoublay, France) and quantified in the linear range of detection using ImageJ 1.50i software (U.S. National Institutes of Health, Bethesda, Md.).

[5] = target: T3, ABCB4-I490T; assay: Canalicular localisation of ABCB4-I490T by indirect immunofluorescence in HepG2 cells; type: cell-based; design: The subcloning of wild type (WT) ABCB4, isoform A (NM_000443.3), into pcDNA3 vector has been described; expressed in transfected cells; host or cells: HepG2 (immunofluorescence); conditions: 25 μM
Procedure: as §1

[6] = target: ABCB4-I541F (Homo sapiens, UniProt P21439, I541F); assay: ABCB4-mediated phosphatidylcholine secretion, HEK cells expressing ABCB4-I541F; type: cell-based; design: The subcloning of wild type (WT) ABCB4, isoform A (NM_000443.3), into pcDNA3 vector has been described; expressed in transfected cells; host or cells: HEK-293 (immunoblot, PC secretion); conditions: 25 μM, maximal activity = cells expressing ABCB4-WT, vehicle 7.1±0.8%
Procedure: Cyclosporin A (CsA) was from Santa Cruz Biotechnologies (Dallas, Tex.). […] Each compound was solubilized in dimethylsulfoxide (DMSO) as 1000× concentrated stock solutions in order to treat cells with 5 μM to 100 μM final concentrations, using DMSO as control vehicle at the same dilution (0.1% DMSO for all conditions). The cells were treated 24 hours post-transfection with these drugs during 16 hours, except for the viability assays for which cells were treated during three days. After drug treatment, cells were used for immunoanalyses, cell viability assays or PC secretion assays.
HEK cells were seeded in 0.01% poly-L-lysine (Sigma) pre-coated 6-well plates of 10 cm^2 area per well (1.3×10^6 cells per well). After transient transfection of the empty vector (control), plasmids encoding ABCB4-WT or its variants, cells were incubated during 24 hours at 37° C. in serum-free medium supplemented with 0.5 mM sodium taurocholate (Sigma) and 0.02% fatty acid-free bovine serum albumin (Sigma). Then, the secreted PC was quantified from the collected media using a fluoro-enzymatic assay previously described (12). Each condition was analysed in triplicate, after background subtraction, and results were normalized to the expression levels of ABCB4 determined by immunoblots of the corresponding cell lysates.

T1 sequence (P50750 whole entry, species assumed): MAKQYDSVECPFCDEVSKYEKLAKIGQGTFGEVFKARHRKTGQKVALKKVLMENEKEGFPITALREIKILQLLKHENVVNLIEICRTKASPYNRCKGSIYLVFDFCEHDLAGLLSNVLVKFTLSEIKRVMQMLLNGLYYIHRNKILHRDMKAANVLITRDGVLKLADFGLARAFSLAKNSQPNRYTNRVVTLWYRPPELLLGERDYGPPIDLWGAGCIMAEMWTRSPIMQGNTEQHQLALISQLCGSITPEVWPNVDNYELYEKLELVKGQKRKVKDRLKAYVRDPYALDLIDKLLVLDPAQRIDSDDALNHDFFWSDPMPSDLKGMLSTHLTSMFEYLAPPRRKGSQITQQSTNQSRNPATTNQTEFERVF
T1 sequence (O60563 whole entry partner, species assumed): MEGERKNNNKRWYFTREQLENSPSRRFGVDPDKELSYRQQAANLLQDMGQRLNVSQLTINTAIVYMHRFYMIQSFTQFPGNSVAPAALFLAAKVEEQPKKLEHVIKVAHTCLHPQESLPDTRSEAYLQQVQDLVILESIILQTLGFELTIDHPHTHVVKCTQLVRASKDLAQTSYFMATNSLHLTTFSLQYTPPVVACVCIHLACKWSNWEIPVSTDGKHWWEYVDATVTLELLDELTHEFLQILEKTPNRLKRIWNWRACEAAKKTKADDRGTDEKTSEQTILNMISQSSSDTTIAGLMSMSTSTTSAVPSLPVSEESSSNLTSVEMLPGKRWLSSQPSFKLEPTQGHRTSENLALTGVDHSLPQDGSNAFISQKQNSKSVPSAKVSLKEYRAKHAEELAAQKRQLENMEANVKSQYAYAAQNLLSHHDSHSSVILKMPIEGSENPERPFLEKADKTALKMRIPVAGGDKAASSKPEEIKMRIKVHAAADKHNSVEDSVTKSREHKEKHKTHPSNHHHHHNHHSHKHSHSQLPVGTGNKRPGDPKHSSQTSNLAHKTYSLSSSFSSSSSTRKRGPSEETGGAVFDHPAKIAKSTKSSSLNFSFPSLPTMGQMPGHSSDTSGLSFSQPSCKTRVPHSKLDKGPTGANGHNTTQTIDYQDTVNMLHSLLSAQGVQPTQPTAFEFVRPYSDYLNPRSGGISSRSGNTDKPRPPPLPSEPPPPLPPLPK
T2 sequence (Q00535 whole entry, species assumed): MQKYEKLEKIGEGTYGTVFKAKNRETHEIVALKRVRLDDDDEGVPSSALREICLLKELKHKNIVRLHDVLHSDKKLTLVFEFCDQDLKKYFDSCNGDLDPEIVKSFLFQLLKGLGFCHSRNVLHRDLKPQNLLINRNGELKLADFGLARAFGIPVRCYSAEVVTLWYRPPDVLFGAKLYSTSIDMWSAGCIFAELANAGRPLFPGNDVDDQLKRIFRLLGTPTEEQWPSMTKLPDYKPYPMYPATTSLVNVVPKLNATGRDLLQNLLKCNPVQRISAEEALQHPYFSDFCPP
T2 sequence (Q15078 99-307 partner limits assumed, species assumed): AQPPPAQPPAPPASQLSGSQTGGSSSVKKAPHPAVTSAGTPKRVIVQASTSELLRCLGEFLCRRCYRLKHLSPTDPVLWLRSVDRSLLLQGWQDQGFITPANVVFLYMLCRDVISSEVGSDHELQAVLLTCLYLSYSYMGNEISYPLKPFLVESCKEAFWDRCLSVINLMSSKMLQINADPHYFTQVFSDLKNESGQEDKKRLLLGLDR
T3 sequence (P21439 1-1279 isoform P21439-2 I490T): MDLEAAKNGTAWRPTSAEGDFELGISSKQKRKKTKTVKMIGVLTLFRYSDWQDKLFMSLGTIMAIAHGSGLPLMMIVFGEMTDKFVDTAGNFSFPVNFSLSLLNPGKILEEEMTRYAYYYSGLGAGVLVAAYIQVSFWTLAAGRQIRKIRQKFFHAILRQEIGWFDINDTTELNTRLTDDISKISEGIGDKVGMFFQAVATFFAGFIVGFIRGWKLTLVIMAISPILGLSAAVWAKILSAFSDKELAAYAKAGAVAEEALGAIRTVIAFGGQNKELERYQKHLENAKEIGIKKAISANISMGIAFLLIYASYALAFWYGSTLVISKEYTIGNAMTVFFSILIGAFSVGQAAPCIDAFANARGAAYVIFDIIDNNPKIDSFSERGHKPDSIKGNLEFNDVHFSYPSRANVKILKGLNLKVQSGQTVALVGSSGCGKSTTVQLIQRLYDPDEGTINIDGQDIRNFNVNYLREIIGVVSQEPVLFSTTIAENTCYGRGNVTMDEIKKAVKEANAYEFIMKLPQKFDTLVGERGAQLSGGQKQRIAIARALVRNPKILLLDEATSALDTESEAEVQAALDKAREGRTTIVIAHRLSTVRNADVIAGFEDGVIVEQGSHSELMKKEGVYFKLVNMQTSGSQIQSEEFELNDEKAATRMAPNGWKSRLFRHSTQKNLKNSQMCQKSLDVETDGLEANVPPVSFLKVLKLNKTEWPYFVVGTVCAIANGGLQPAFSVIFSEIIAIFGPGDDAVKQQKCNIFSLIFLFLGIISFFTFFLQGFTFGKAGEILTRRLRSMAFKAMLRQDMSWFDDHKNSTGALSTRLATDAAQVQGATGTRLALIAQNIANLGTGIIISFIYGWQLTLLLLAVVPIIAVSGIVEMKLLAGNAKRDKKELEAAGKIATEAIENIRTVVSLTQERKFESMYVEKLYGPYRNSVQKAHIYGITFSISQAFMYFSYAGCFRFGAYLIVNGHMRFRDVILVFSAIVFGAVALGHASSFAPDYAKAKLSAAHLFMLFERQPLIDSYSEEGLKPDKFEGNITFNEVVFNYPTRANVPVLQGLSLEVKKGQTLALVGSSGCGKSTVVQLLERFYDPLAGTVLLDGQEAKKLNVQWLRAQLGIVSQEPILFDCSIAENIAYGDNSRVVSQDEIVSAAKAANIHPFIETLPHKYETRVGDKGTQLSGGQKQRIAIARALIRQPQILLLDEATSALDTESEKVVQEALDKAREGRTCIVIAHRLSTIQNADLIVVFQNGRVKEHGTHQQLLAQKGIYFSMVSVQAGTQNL
ABCB4-I541F, sequence (P21439 1-1279 isoform P21439-2 I541F): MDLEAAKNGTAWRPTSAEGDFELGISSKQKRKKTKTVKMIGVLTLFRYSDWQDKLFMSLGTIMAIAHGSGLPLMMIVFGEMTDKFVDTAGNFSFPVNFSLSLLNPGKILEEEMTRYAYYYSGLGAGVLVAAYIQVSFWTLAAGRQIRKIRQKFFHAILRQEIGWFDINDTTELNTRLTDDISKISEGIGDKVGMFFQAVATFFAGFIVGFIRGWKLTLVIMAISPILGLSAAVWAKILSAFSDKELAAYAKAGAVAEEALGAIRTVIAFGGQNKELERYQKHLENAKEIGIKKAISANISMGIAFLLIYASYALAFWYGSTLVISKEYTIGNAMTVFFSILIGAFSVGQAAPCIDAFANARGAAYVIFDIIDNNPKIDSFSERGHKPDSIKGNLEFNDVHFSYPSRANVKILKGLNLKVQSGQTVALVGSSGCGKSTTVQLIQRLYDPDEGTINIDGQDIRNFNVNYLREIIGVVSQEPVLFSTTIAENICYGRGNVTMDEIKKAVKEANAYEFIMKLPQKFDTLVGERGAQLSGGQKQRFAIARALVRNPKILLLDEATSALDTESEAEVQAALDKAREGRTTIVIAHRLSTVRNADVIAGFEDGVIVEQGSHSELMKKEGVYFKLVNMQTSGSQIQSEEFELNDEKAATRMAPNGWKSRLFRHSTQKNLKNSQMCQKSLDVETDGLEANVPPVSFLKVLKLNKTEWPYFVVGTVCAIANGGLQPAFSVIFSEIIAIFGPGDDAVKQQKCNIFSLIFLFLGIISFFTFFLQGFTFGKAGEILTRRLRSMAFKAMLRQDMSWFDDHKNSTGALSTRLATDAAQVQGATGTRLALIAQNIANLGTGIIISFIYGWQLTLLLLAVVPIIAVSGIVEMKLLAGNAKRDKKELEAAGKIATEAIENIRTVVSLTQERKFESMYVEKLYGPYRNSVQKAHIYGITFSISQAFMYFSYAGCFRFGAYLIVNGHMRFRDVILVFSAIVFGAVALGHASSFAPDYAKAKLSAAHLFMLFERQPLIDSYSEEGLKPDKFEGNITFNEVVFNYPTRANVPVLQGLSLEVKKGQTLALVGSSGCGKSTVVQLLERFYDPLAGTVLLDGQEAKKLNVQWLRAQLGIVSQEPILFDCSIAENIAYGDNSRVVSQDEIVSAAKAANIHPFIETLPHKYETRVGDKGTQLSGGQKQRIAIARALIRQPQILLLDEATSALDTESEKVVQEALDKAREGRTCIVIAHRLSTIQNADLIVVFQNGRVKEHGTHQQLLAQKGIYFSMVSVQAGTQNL

| SMILES | relocalisation of ABCB4-L556R at bile canaliculi [1] | IC50 [2] [µM] | IC50 [3] [µM] | rescue of the maturation of ABCB4-I490T [4] | relocalisation of ABCB4-I490T at bile canaliculi [5] | PC secretion activity of ABCB4-I541F (residual activity) [6] [%] |
| --- | --- | --- | --- | --- | --- | --- |
| CC[C@@H](Nc1nc(NCc2cccc(F)c2)c2ncn(C3CCCC3)c2n1)C(=O)O [MRT2-235] | partially relocalised at bile canaliculi | 7 | 8.3 | dose-dependent rescue of the maturation | partially relocalised at bile canaliculi | 19.0±3.4 |
| CC[C@@H](Nc1nc(NCc2cccc(Cl)c2)c2ncn(C3CCCC3)c2n1)C(=O)O [MRT2-237] | partially relocalised at bile canaliculi | 9 | 7.7 | dose-dependent rescue of the maturation | partially relocalised at bile canaliculi | 13.0±3.5 |
| CC[C@@H](Nc1nc(NCc2ccc(Cl)c(F)c2)c2ncn(C3CCCC3)c2n1)C(=O)O [MRT2-243] | partially relocalised at bile canaliculi | 5 | 6.3 | dose-dependent rescue of the maturation | partially relocalised at bile canaliculi | 22.5±6.2 |
